Format in all cases: functional
The subject of test [1] is Rattus norvegicus. The test can be described thus: Anti-inflammatory activity in Wistar rat assessed as reduction in carrageenan induced paw edema by measuring paw volume as ml of Hg at 100 mg/kg, po administered 30 mins before carrageenan challenge measured 6 hrs post carrageenan challenge (reference value: 0.36 +/- 0.3 ml of Hg).
The subject of test [2] is Rattus norvegicus. Briefly: Anti-inflammatory activity in Wistar rat assessed as reduction in carrageenan induced paw edema by measuring paw volume as ml of Hg at 100 mg/kg, po administered 30 mins before carrageenan challenge measured 4 hrs post carrageenan challenge (reference value: 0.36 +/- 0.3 ml of Hg).
The subject of test [3] is Rattus norvegicus. Briefly: Anti-inflammatory activity in Wistar rat assessed as reduction in carrageenan induced paw edema by measuring paw volume as ml of Hg at 100 mg/kg, po administered 30 mins before carrageenan challenge measured 2 hrs post carrageenan challenge (reference value: 0.36 +/- 0.3 ml of Hg). In general terms: In the carrageenan paw model, swelling and tenderness develop within hours.

In test [4] the test system is Rattus norvegicus. The test can be described thus: Anti-inflammatory activity in Wistar rat assessed as reduction in carrageenan induced paw edema by measuring paw volume as ml of Hg at 100 mg/kg, po administered 30 mins before carrageenan challenge measured 1 hr post carrageenan challenge (reference value: 0.36 +/- 0.3 ml of Hg).

In the case of `Cc1noc2c(C(=O)c3ccccc3)noc12`, the Activity is 0.63 mL in the test with Rattus norvegicus [1], 0.82 mL with Rattus norvegicus [2], 0.86 mL in the test with Rattus norvegicus [3] and 0.8 mL with Rattus norvegicus [4].

As for `Cc1noc2c(C(=O)c3ccccc3[N+](=O)[O-])noc12`, the Activity in the test with Rattus norvegicus [1] was found to be 0.63 mL; in the test with Rattus norvegicus [2] it was 0.81 mL; with Rattus norvegicus [3] it was 0.83 mL; in the test with Rattus norvegicus [4], 0.75 mL.

Take `Cc1noc2c(C(=O)c3ccccc3O)noc12`: the Activity in the test on Rattus norvegicus [1] stood at 0.61 mL; with Rattus norvegicus [2], 0.8 mL; in the test on Rattus norvegicus [3] it was 0.93 mL; with Rattus norvegicus [4] it was 0.82 mL.

Take `COc1ccc(C(=O)c2noc3c(C)noc23)cc1`: the Activity in the test with Rattus norvegicus [1] stood at 0.62 mL; in the test with Rattus norvegicus [2] it was 0.83 mL; in the test with Rattus norvegicus [3] it was 0.7 mL; in the test with Rattus norvegicus [4], 0.78 mL.

As to `Cc1noc2c(C(=O)c3ccccc3Cl)noc12`, the Activity amounted to 0.5 mL with Rattus norvegicus [1], 0.51 mL with Rattus norvegicus [2], 0.68 mL in the test with Rattus norvegicus [3] and 0.51 mL in the test with Rattus norvegicus [4].

With `Cc1noc2c(C(=O)c3ccc(N(C)C)cc3)noc12`, the Activity in the test with Rattus norvegicus [1] amounted to 0.55 mL; in the test on Rattus norvegicus [2], 0.63 mL; with Rattus norvegicus [3] it was 0.83 mL; in the test on Rattus norvegicus [4], 0.78 mL.

Turning to `Cc1noc2c(C(=O)c3ccccc3Br)noc12`, the Activity is 0.51 mL in the test with Rattus norvegicus [1], 0.65 mL in the test on Rattus norvegicus [2], 0.68 mL in the test with Rattus norvegicus [3] and 0.5 mL in the test on Rattus norvegicus [4].

For `Cc1noc2c(C(=O)c3ccc(Cl)cc3)noc12`, the Activity with Rattus norvegicus [1] is 0.41 mL; with Rattus norvegicus [2] it was 0.67 mL; in the test with Rattus norvegicus [3] it was 0.65 mL; in the test on Rattus norvegicus [4] it was 0.53 mL.

Turning to `Cc1noc2c(C(=O)c3ccc(Br)cc3)noc12`, the Activity in the test on Rattus norvegicus [1] was 0.32 mL; in the test with Rattus norvegicus [2] it was 0.54 mL; in the test on Rattus norvegicus [3], 0.69 mL; with Rattus norvegicus [4], 0.52 mL.

The values are drawn from ChEMBL document CHEMBL3397034, “Environmentally benign synthesis, molecular properties prediction and anti-inflammatory activity of novel isoxazolo[5,4-d]isoxazol-3-yl-aryl-methanones via vinylogous Henry nitroaldol adducts as synthons” (2015).
